Data: US7297700B2, “Bicycloheteroaryl compounds as P2X7 modulators and uses thereof” (Renovis, Inc., priority 2005, dated 2007)

What follows are molecules tested on IL-1β release from THP-1 cells (assay: IL-1β Release Assay (Alternate Method), THP-1 cells). Conditions: Homo sapiens, THP-1, read-out: IL-1β % inhibition.
Assay type: cell-based, human
Method in brief: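 IL-1β release, measured by ELISA, follows 45 min BzATP (250 uM final) stimulation of THP-1 cells given 30 min compound pretreatment. Cells were first primed 16 h with LPS and IFN-γ (100 ng/mL each), then 2 h with fresh LPS; inhibition expressed in percent after background correction.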
`O=C(CC12CC3CC(CC(C3)C1)C2)Nc1ncnc2c1CCN(Cc1ccccc1)C2` [Compound 5, 2-Adamantan-1-yl-N-(7-benzyl-5,6,7,8-tetrahydro-pyrido[3,4-d]pyrimidin-4-yl)-acetamide] gave an inhibition at 0.3 µM of 25 to 50%.

Same assay, conditions: at 0.3 μM; THP-1 cells
For `O=C(CC12CC3CC(CC(C3)C1)C2)Nc1ncnc2c1CCN(C(=O)c1ccc3ccccc3n1)C2` [Compound 303], the IL-1β % inhibition was “+++ (compound exhibited 50-75% inhibition at 0.3 μM)”. For `CC(=O)N1CCc2c(ncnc2NC(=O)CC23CC4CC(CC(C4)C2)C3)C1` [Compound 219], the IL-1β % inhibition was “+ (compound exhibited 0-25% inhibition at 0.3 μM)”. In the case of `O=C(Cc1ccccc1)N1CCc2c(ncnc2NC(=O)C23CC4CC(CC(C4)C2)C3)C1` [Compound 398], the IL-1β % inhibition is reported as “+++ (compound exhibited 50-75% inhibition at 0.3 μM)”. `CC12CC3CC(C)(C1)CC(CC(=O)Nc1ncnc4c1CCN(C(=O)c1cccc(Cl)c1Cl)C4)(C3)C2` [Compound 391] was tested, and the IL-1β % inhibition was “+ (compound exhibited 0-25% inhibition at 0.3 μM)”. With `CC(C)(C)c1ccc(CN2CCc3c(ncnc3NC(=O)CC34CC5CC(CC(C5)C3)C4)C2)cc1` [Compound 71] the IL-1β % inhibition was “+ (compound exhibited 0-25% inhibition at 0.3 μM)”. With `O=C(CC12CC3CC(CC(C3)C1)C2)Nc1ncnc2c1CCN(S(=O)(=O)c1cccc(Cl)c1)C2` [Compound 168] the IL-1β % inhibition was “++++ (compound exhibited 75% or greater inhibition at 0.3 μM)”. `O=C(CC12CC3CC(CC(C3)C1)C2)Nc1ncnc2c1CCN(Cc1ccc(OCCO)cc1)C2` [Compound 99] was tested, and the IL-1β % inhibition was “+ (compound exhibited 0-25% inhibition at 0.3 μM)”. With `CC12CC3CC(C)(C1)CC(CC(=O)Nc1ncnc4c1CCN(S(=O)(=O)Cc1ccc(Cl)c(Cl)c1)C4)(C3)C2` [Compound 378] the IL-1β % inhibition was “+++ (compound exhibited 50-75% inhibition at 0.3 μM)”. With `O=C(CC12CC3CC(CC(C3)C1)C2)Nc1ncnc2c1CCN(C(=O)Cc1ccccc1Br)C2` [Compound 302] the IL-1β % inhibition was “+++ (compound exhibited 50-75% inhibition at 0.3 μM)”. `O=C(CC12CC3CC(CC(C3)C1)C2)Nc1ncnc2c1CCN(S(=O)(=O)c1ccc(OC(F)F)cc1)C2` [Compound 190] was tested, and the IL-1β % inhibition was “+++ (compound exhibited 50-75% inhibition at 0.3 μM)”. `O=C(CC12CC3CC(CC(C3)C1)C2)Nc1ncnc2c1CCN(C(=O)COCc1ccccc1)C2` [Compound 256] was tested, and the IL-1β % inhibition was “+++ (compound exhibited 50-75% inhibition at 0.3 μM)”. With `O=C(CC12CC3CC(CC(C3)C1)C2)Nc1ncnc2c1CCN(C(=O)c1cccnc1)C2` [Compound 237] the IL-1β % inhibition was “+ (compound exhibited 0-25% inhibition at 0.3 μM)”. `Cc1cc(C(=O)N2CCc3c(ncnc3NC(=O)CC34CC5CC(CC(C5)C3)C4)C2)no1` [Compound 283] was tested, and the IL-1β % inhibition was “+++ (compound exhibited 50-75% inhibition at 0.3 μM)”. In the case of `O=C(CC12CC3CC(CC(C3)C1)C2)Nc1ncnc2c1CCN(S(=O)(=O)c1cc(Cl)ccc1F)C2` [Compound 205], the IL-1β % inhibition is reported as “+ (compound exhibited 0-25% inhibition at 0.3 μM)”. With `O=C(CC12CC3CC(CC(C3)C1)C2)Nc1ncnc2c1CCN(S(=O)(=O)c1cccc(F)c1)C2` [Compound 215] the IL-1β % inhibition was “+++ (compound exhibited 50-75% inhibition at 0.3 μM)”. With `O=C(CC12CC3CC(CC(C3)C1)C2)Nc1ncnc2c1CCN(S(=O)(=O)c1ccc(Oc3ccccc3)cc1)C2` [Compound 191] the IL-1β % inhibition was “+ (compound exhibited 0-25% inhibition at 0.3 μM)”. With `O=C(CC12CC3CC(CC(C3)C1)C2)Nc1ncnc2c1CCN(Cc1ccc(-n3ccnc3)cc1)C2` [Compound 98] the IL-1β % inhibition was “++ (compound exhibited 25-50% inhibition at 0.3 μM)”. For `O=C(CC12CC3CC(CC(C3)C1)C2)Nc1ncnc2c1CCN(Cc1ccc(F)cc1)C2` [Compound 123], the IL-1β % inhibition was “+ (compound exhibited 0-25% inhibition at 0.3 μM)”. In the case of `O=C(CC12CC3CC(CC(C3)C1)C2)Nc1ncnc2c1CCN(S(=O)(=O)c1ccc(F)cc1Cl)C2` [Compound 211], the IL-1β % inhibition is reported as “+ (compound exhibited 0-25% inhibition at 0.3 μM)”. In the case of `O=C(CC12CC3CC(CC(C3)C1)C2)Nc1ncnc2c1CCN(Cc1ccccc1Cl)C2` [Compound 27], the IL-1β % inhibition is reported as “+++ (compound exhibited 50-75% inhibition at 0.3 μM)”. In the case of `CC(C)(C(=O)Nc1ncnc2c1CCN(Cc1ccc3c(c1)OCCO3)C2)C12CC3CC(CC(C3)C1)C2` [Compound 350], the IL-1β % inhibition is reported as “+ (compound exhibited 0-25% inhibition at 0.3 μM)”. In the case of `O=C(CC12CC3CC(CC(C3)C1)C2)Nc1ncnc2c1CCN(S(=O)(=O)c1ccccc1C(F)(F)F)C2` [Compound 195], the IL-1β % inhibition is reported as “+ (compound exhibited 0-25% inhibition at 0.3 μM)”. For `O=C(CC12CC3CC(CC(C3)C1)C2)Nc1ncnc2c1CCN(C(=O)C1CCCCC1)C2` [Compound 244], the IL-1β % inhibition was “++ (compound exhibited 25-50% inhibition at 0.3 μM)”. With `COc1ccc(F)c(CN2CCc3c(ncnc3NC(=O)CC34CC5CC(CC(C5)C3)C4)C2)c1` [Compound 104] the IL-1β % inhibition was “+++ (compound exhibited 50-75% inhibition at 0.3 μM)”. With `COc1ccc(S(=O)(=O)N2CCc3c(ncnc3NC(=O)CC34CC5CC(CC(C5)C3)C4)C2)c(OC)c1` [Compound 197] the IL-1β % inhibition was “++++ (compound exhibited 75% or greater inhibition at 0.3 μM)”. With `CC(C)(C(=O)Nc1ncnc2c1CCN(C(=O)CC1CCCC1)C2)C12CC3CC(CC(C3)C1)C2` [Compound 365] the IL-1β % inhibition was “+ (compound exhibited 0-25% inhibition at 0.3 μM)”. For `COc1cc(CN2CCc3c(ncnc3NC(=O)CC34CC5CC(CC(C5)C3)C4)C2)cc(OC)c1` [Compound 37], the IL-1β % inhibition was “+ (compound exhibited 0-25% inhibition at 0.3 μM)”. `O=C(CC1CCCCC1)Nc1ncnc2c1CCN(CCO)C2` [Compound 22] was tested, and the IL-1β % inhibition was “+ (compound exhibited 0-25% inhibition at 0.3 μM)”. `Cc1cccc(C(=O)N2CCc3c(ncnc3NC(=O)CC34CC5CC(C)(CC(C)(C5)C3)C4)C2)c1` [Compound 382] was tested, and the IL-1β % inhibition was “++ (compound exhibited 25-50% inhibition at 0.3 μM)”. `Cc1ccccc1CN1CCc2c(ncnc2NC(=O)CC23CC4CC(CC(C4)C2)C3)C1` [Compound 31] was tested, and the IL-1β % inhibition was “+++ (compound exhibited 50-75% inhibition at 0.3 μM)”. In the case of `O=C(CC12CC3CC(CC(C3)C1)C2)Nc1ncnc2c1CCN(C(=O)COc1ccccc1)C2` [Compound 249], the IL-1β % inhibition is reported as “+ (compound exhibited 0-25% inhibition at 0.3 μM)”. With `O=C(CC12CC3CC(CC(C3)C1)C2)Nc1ncnc2c1CCN(S(=O)(=O)c1cccc(OC(F)(F)F)c1)C2` [Compound 161] the IL-1β % inhibition was “++ (compound exhibited 25-50% inhibition at 0.3 μM)”. For `O=C(CC12CC3CC(CC(C3)C1)C2)Nc1ncnc2c1CCN(Cc1cccc(OC(F)(F)F)c1)C2` [Compound 114], the IL-1β % inhibition was “+ (compound exhibited 0-25% inhibition at 0.3 μM)”. In the case of `Cc1ccc(CN2CCc3c(ncnc3NC(=O)CC3CCCCCC3)C2)s1` [Compound 125], the IL-1β % inhibition is reported as “+ (compound exhibited 0-25% inhibition at 0.3 μM)”. With `O=C(CC12CC3CC(CC(C3)C1)C2)Nc1ncnc2c1CCN(Cc1ccccc1OC(F)(F)F)C2` [Compound 76] the IL-1β % inhibition was “+ (compound exhibited 0-25% inhibition at 0.3 μM)”.

Same assay, conditions: at 0.3 μM; THP-1 cells, BzATP-stimulated
With `N#Cc1ccc(S(=O)(=O)N2CCc3c(ncnc3NC(=O)C34CC5CC(CC(C5)C3)C4)C2)c(Cl)c1` [Compound 500] the IL-1β % inhibition was “+++ (compound exhibited 50-75% inhibition at 0.3 μM)”. In the case of `COc1ccc(F)c(CN2CCc3c(ncnc3NC(=O)C34CC5CC(CC(C5)C3)C4)C2)c1` [Compound 628], the IL-1β % inhibition is reported as “+ (compound exhibited 0-25% inhibition at 0.3 μM)”. With `O=C(Nc1ncnc2c1CCN(S(=O)(=O)Cc1ccc(Cl)c(Cl)c1)C2)C12CC3CC(CC(C3)C1)C2` [Compound 518] the IL-1β % inhibition was “++++ (compound exhibited 75% or greater inhibition at 0.3 μM)”. `O=C(Nc1ncnc2c1CCN(Cc1ccc(Cl)cc1Cl)C2)C12CC3CC(CC(C3)C1)C2` [Compound 570] was tested, and the IL-1β % inhibition was “++ (compound exhibited 25-50% inhibition at 0.3 μM)”. In the case of `O=C(Nc1ncnc2c1CCN(S(=O)(=O)c1ccc(Oc3ccc(C(F)(F)F)cc3)cc1)C2)C12CC3CC(CC(C3)C1)C2` [Compound 510], the IL-1β % inhibition is reported as “++++ (compound exhibited 75% or greater inhibition at 0.3 μM)”. With `O=C(Nc1ncnc2c1CCN(S(=O)(=O)c1ccccc1-c1ccccc1)C2)C12CC3CC(CC(C3)C1)C2` [Compound 527] the IL-1β % inhibition was “+++ (compound exhibited 50-75% inhibition at 0.3 μM)”. For `O=C(Nc1ncnc2c1CCN(S(=O)(=O)c1ccccc1F)C2)C12CC3CC(CC(C3)C1)C2` [Compound 501], the IL-1β % inhibition was “++ (compound exhibited 25-50% inhibition at 0.3 μM)”. With `Cc1ccc2occ(CN3CCc4c(ncnc4NC(=O)C45CC6CC(CC(C6)C4)C5)C3)c(=O)c2c1` [Compound 567] the IL-1β % inhibition was “++ (compound exhibited 25-50% inhibition at 0.3 μM)”. For `O=C(Nc1ncnc2c1CCN(Cc1ccc3c(c1)OCCO3)C2)C12CC3CC(CC(C3)C1)C2` [Compound 589], the IL-1β % inhibition was “+++ (compound exhibited 50-75% inhibition at 0.3 μM)”. For `Cc1ccccc1S(=O)(=O)N1CCc2c(ncnc2NC(=O)C23CC4CC(CC(C4)C2)C3)C1` [Compound 533], the IL-1β % inhibition was “+++ (compound exhibited 50-75% inhibition at 0.3 μM)”. With `O=C(Nc1ncnc2c1CCN(CCCc1ccccc1)C2)C12CC3CC(CC(C3)C1)C2` [Compound 559] the IL-1β % inhibition was “++ (compound exhibited 25-50% inhibition at 0.3 μM)”. `CCOc1cccc(CN2CCc3c(ncnc3NC(=O)C34CC5CC(CC(C5)C3)C4)C2)c1` [Compound 625] was tested, and the IL-1β % inhibition was “+ (compound exhibited 0-25% inhibition at 0.3 μM)”. With `O=C(Nc1ncnc2c1CCN(Cc1cccnc1)C2)C12CC3CC(CC(C3)C1)C2` [Compound 560] the IL-1β % inhibition was “++ (compound exhibited 25-50% inhibition at 0.3 μM)”. `O=C(c1cc(C(F)(F)F)ccc1Cl)N1CCc2c(ncnc2NC(=O)C23CC4CC(CC(C4)C2)C3)C1` [Compound 443] was tested, and the IL-1β % inhibition was “++ (compound exhibited 25-50% inhibition at 0.3 μM)”. For `O=C(Nc1ncnc2c1CCN(Cc1ccc(C(F)(F)F)cc1F)C2)C12CC3CC(CC(C3)C1)C2` [Compound 612], the IL-1β % inhibition was “++++ (compound exhibited 75% or greater inhibition at 0.3 μM)”. For `O=C(c1c(F)cccc1F)N1CCc2c(ncnc2NC(=O)C23CC4CC(CC(C4)C2)C3)C1` [Compound 419], the IL-1β % inhibition was “+ (compound exhibited 0-25% inhibition at 0.3 μM)”. `N#Cc1cc(CN2CCc3c(ncnc3NC(=O)C34CC5CC(CC(C5)C3)C4)C2)ccc1F` [Compound 595] was tested, and the IL-1β % inhibition was “+ (compound exhibited 0-25% inhibition at 0.3 μM)”.
